Source: ChEMBL document CHEMBL1134803, “Inhibition of fucosyltransferase V by a GDP-Azasugar” (Bioorg Med Chem Lett, 2001)

Columns and labels:
[1] = target: T1, 4-galactosyl-N-acetylglucosaminide 3-alpha-L-fucosyltransferase FUT5 (Homo sapiens, UniProt Q11128); experiment: Inhibitory activity against fucosyltransferase (FucT V) in the presence of fucosyl acceptor N-acetyllactosamine
T1 sequence (Q11128 whole entry): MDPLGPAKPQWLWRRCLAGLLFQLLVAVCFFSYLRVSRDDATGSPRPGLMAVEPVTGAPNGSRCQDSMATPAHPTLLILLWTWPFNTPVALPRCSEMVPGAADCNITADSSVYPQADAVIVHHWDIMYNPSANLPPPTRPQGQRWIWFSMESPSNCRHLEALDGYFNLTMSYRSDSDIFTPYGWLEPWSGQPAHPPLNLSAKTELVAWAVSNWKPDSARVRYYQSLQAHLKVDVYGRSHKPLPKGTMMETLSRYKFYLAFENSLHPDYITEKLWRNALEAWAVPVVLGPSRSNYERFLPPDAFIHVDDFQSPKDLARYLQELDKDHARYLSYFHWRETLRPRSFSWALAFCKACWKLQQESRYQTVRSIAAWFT

[2] = target: T1, 4-galactosyl-N-acetylglucosaminide 3-alpha-L-fucosyltransferase FUT5; experiment: Inhibitory activity against fucosyltransferase (FucT V) in the presence of 1 mM fucosyl acceptor N-acetyllactosamine
[3] = target: T1, 4-galactosyl-N-acetylglucosaminide 3-alpha-L-fucosyltransferase FUT5; experiment: Inhibitory activity against fucosyltransferase (FucT V) in the presence of 10 mM fucosyl acceptor N-acetyllactosamine

IC50 [1] [µM] | IC50 [2] [µM] | IC50 [3] [µM] | SMILES
> 1000 | – | – | NCCOP(=O)(O)OP(=O)(O)OC[C@H]1O[C@@H](n2cnc3c(O)nc(N)nc32)[C@H](O)[C@@H]1O
– | 45 | 82 | C[C@@H]1N[C@H](COP(=O)(O)OP(=O)(O)OC[C@H]2O[C@@H](n3cnc4c(O)nc(N)nc43)[C@H](O)[C@@H]2O)[C@@H](O)[C@@H]1O
67 | – | – | Nc1nc2c(ncn2[C@@H]2O[C@H](COP(=O)(O)OP(=O)(O)O)[C@@H](O)[C@H]2O)c(=O)[nH]1
